Assay results: PubChem BioAssay (NCI)
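48-hour exposure; five concentrations; linearly interpolated endpoints. GI50: concentration for 50% inhibition of growth. TGI is the concentration that stops growth completely.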

Tests used:
Experiment in all cases: inhibition of tumour cell growth, NCI panel, 48 h; in the data active = GI50 below about 0.43 µM; inactive = the rest
786-0 renal = system: 786-0 renal
A498 renal = system: A498 renal
A549 NSCLC = system: A549 NSCLC
ACHN renal = system: ACHN renal
BT-549 breast = system: BT-549 breast
CAKI-1 renal = system: CAKI-1 renal
CCRF-CEM leukemia = system: CCRF-CEM leukemia
DU-145 prostate = system: DU-145 prostate
EKVX NSCLC = system: EKVX NSCLC
HCC-2998 colon = system: HCC-2998 colon
HCT-116 colon = system: HCT-116 colon
HCT-15 colon = system: HCT-15 colon
HL-60(TB) leukemia = system: HL-60(TB) leukemia
HOP-62 NSCLC = system: HOP-62 NSCLC
HOP-92 NSCLC = system: HOP-92 NSCLC
HS 578T breast = system: HS 578T breast
HT29 colon = system: HT29 colon
IGROV1 ovarian = system: IGROV1 ovarian
K-562 leukemia = system: K-562 leukemia
KM12 colon = system: KM12 colon
LOX IMVI melanoma = system: LOX IMVI melanoma
M14 melanoma = system: M14 melanoma
MALME-3M melanoma = system: MALME-3M melanoma
MCF7 breast = system: MCF7 breast
MDA-MB-231 breast = system: MDA-MB-231 breast
MDA-MB-435 = system: MDA-MB-435
MOLT-4 leukemia = system: MOLT-4 leukemia
NCI-H23 lung = system: NCI-H23 lung
NCI-H460 lung = system: NCI-H460 lung
NCI-H522 lung = system: NCI-H522 lung
NCI/ADR-RES ovarian = system: NCI/ADR-RES ovarian
OVCAR-3 ovarian = system: OVCAR-3 ovarian
OVCAR-4 ovarian = system: OVCAR-4 ovarian
OVCAR-5 ovarian = system: OVCAR-5 ovarian
OVCAR-8 ovarian = system: OVCAR-8 ovarian
PC-3 prostate = system: PC-3 prostate
RPMI-8226 leukemia = system: RPMI-8226 leukemia
RXF 393 renal = system: RXF 393 renal
SF-268 CNS = system: SF-268 CNS
SF-295 CNS = system: SF-295 CNS
SF-539 CNS = system: SF-539 CNS
SK-MEL-2 melanoma = system: SK-MEL-2 melanoma
SK-MEL-28 melanoma = system: SK-MEL-28 melanoma
SN12C renal = system: SN12C renal
SNB-19 CNS = system: SNB-19 CNS
SNB-75 CNS = system: SNB-75 CNS
SR leukemia = system: SR leukemia
SW-620 colon = system: SW-620 colon
T-47D breast = system: T-47D breast
TK-10 renal = system: TK-10 renal
U251 CNS = system: U251 CNS
UACC-257 melanoma = system: UACC-257 melanoma
UACC-62 melanoma = system: UACC-62 melanoma
UO-31 renal = system: UO-31 renal
COLO 205 colon = system: COLO 205 colon
NCI-H226 lung = system: NCI-H226 lung
SK-MEL-5 melanoma = system: SK-MEL-5 melanoma
SK-OV-3 ovarian = system: SK-OV-3 ovarian

c1ccc([P+](c2ccccc2)(c2ccccc2)c2ccc3c4ccc([P+](c5ccccc5)(c5ccccc5)c5ccccc5)c5cccc(c6cccc2c63)c54)cc1
17.9 µM: TGI (U251 CNS)
6.25 µM: TGI (HL-60(TB) leukemia)
14.2 µM: TGI (MCF7 breast)
7.47 µM: TGI (IGROV1 ovarian)
> 100 µM: TGI (A549 NSCLC) | TGI (ACHN renal) | TGI (CAKI-1 renal) | TGI (HCT-15 colon) | TGI (K-562 leukemia) | TGI (NCI/ADR-RES ovarian) | TGI (OVCAR-5 ovarian) | TGI (OVCAR-8 ovarian) | TGI (SR leukemia) | TGI (TK-10 renal)
2.32 µM: TGI (SF-539 CNS)
35.2 µM: TGI (EKVX NSCLC)
7.48 µM: TGI (M14 melanoma)
5.36 µM: TGI (SF-295 CNS)
4.16 µM: TGI (RPMI-8226 leukemia)
10.4 µM: TGI (HCT-116 colon)
5.49 µM: TGI (HS 578T breast)
9.98 µM: TGI (MDA-MB-231 breast)
19.3 µM: TGI (MOLT-4 leukemia)
13.1 µM: TGI (SNB-19 CNS)
20 µM: TGI (SF-268 CNS)
10.8 µM: TGI (SW-620 colon)
13.3 µM: TGI (HT29 colon)
3.94 µM: TGI (NCI-H460 lung)
6.15 µM: TGI (SK-MEL-28 melanoma)
active: GI50 (MALME-3M melanoma) 0.412 µM
4.21 µM: TGI (MDA-MB-435)
7.58 µM: TGI (SK-MEL-2 melanoma)
8.47 µM: TGI (UACC-257 melanoma)
28.8 µM: TGI (786-0 renal)
8.51 µM: TGI (HCC-2998 colon)
4.17 µM: TGI (SNB-75 CNS)
25.8 µM: TGI (HOP-62 NSCLC)
24.6 µM: TGI (T-47D breast)
6.79 µM: TGI (A498 renal)
30.8 µM: TGI (OVCAR-4 ovarian)
2.69 µM: TGI (BT-549 breast)
11.9 µM: TGI (OVCAR-3 ovarian)
13.4 µM: TGI (DU-145 prostate)
78.3 µM: TGI (UO-31 renal)
2.56 µM: TGI (MALME-3M melanoma)
33.3 µM: TGI (CCRF-CEM leukemia)
inactive: GI50 (786-0 renal) 3.04 µM | GI50 (A498 renal) 0.889 µM | GI50 (A549 NSCLC) 0.986 µM | GI50 (ACHN renal) 3.79 µM | GI50 (BT-549 breast) 0.455 µM | GI50 (CAKI-1 renal) 6.15 µM | GI50 (CCRF-CEM leukemia) 2.13 µM | GI50 (DU-145 prostate) 0.811 µM | GI50 (EKVX NSCLC) 1.69 µM | GI50 (HCC-2998 colon) 2.28 µM | GI50 (HCT-116 colon) 1.54 µM | GI50 (HCT-15 colon) 5.89 µM | GI50 (HL-60(TB) leukemia) 2.38 µM | GI50 (HOP-62 NSCLC) 0.931 µM | GI50 (HOP-92 NSCLC) 1.18 µM | GI50 (HS 578T breast) 0.574 µM | GI50 (HT29 colon) 1.64 µM | GI50 (IGROV1 ovarian) 1.41 µM | GI50 (K-562 leukemia) 0.506 µM | GI50 (KM12 colon) 0.743 µM | GI50 (LOX IMVI melanoma) 2.67 µM | GI50 (M14 melanoma) 1.39 µM | GI50 (MCF7 breast) 1.25 µM | GI50 (MDA-MB-231 breast) 2.22 µM | GI50 (MDA-MB-435) 0.799 µM | GI50 (MOLT-4 leukemia) 2.37 µM | GI50 (NCI-H23 lung) 2.1 µM | GI50 (NCI-H460 lung) 0.692 µM | GI50 (NCI-H522 lung) 1.24 µM | GI50 (NCI/ADR-RES ovarian) 9.41 µM | GI50 (OVCAR-3 ovarian) 1.91 µM | GI50 (OVCAR-4 ovarian) 1.89 µM | GI50 (OVCAR-5 ovarian) 2.82 µM | GI50 (OVCAR-8 ovarian) 1.32 µM | GI50 (PC-3 prostate) 1.65 µM | GI50 (RPMI-8226 leukemia) 0.647 µM | GI50 (RXF 393 renal) 2.79 µM | GI50 (SF-268 CNS) 0.995 µM | GI50 (SF-295 CNS) 1.24 µM | GI50 (SF-539 CNS) 0.477 µM | GI50 (SK-MEL-2 melanoma) 2.57 µM | GI50 (SK-MEL-28 melanoma) 1.67 µM | GI50 (SN12C renal) 1.09 µM | GI50 (SNB-19 CNS) 0.714 µM | GI50 (SNB-75 CNS) 0.435 µM | GI50 (SR leukemia) 1.1 µM | GI50 (SW-620 colon) 1.98 µM | GI50 (T-47D breast) 0.621 µM | GI50 (TK-10 renal) 4.18 µM | GI50 (U251 CNS) 0.445 µM | GI50 (UACC-257 melanoma) 2.12 µM | GI50 (UACC-62 melanoma) 1.47 µM | GI50 (UO-31 renal) 2.73 µM
13.7 µM: TGI (NCI-H522 lung) | TGI (SN12C renal)
20.7 µM: TGI (LOX IMVI melanoma)
3.1 µM: TGI (KM12 colon)
25.3 µM: TGI (RXF 393 renal)
4.64 µM: TGI (UACC-62 melanoma)
13.5 µM: TGI (NCI-H23 lung)
5.44 µM: TGI (HOP-92 NSCLC)
14.3 µM: TGI (PC-3 prostate)

Clc1ccc2c(c1)C(Br)c1cc(Cl)cc(Cl)c1-2 (configuration not stated)
72.3 µM: TGI (SK-MEL-5 melanoma)
> 100 µM: TGI (786-0 renal) | TGI (A498 renal) | TGI (A549 NSCLC) | TGI (ACHN renal) | TGI (CAKI-1 renal) | TGI (COLO 205 colon) | TGI (DU-145 prostate) | TGI (EKVX NSCLC) | TGI (HCC-2998 colon) | TGI (HCT-116 colon) | TGI (HCT-15 colon) | TGI (HL-60(TB) leukemia) | TGI (HOP-62 NSCLC) | TGI (HOP-92 NSCLC) | TGI (HS 578T breast) | TGI (HT29 colon) | TGI (IGROV1 ovarian) | TGI (K-562 leukemia) | TGI (KM12 colon) | TGI (LOX IMVI melanoma) | TGI (MALME-3M melanoma) | TGI (MCF7 breast) | TGI (MDA-MB-231 breast) | TGI (MDA-MB-435) | TGI (MOLT-4 leukemia) | TGI (NCI-H460 lung) | TGI (NCI-H522 lung) | TGI (NCI/ADR-RES ovarian) | TGI (OVCAR-3 ovarian) | TGI (OVCAR-4 ovarian) | TGI (OVCAR-5 ovarian) | TGI (OVCAR-8 ovarian) | TGI (PC-3 prostate) | TGI (RPMI-8226 leukemia) | TGI (SF-268 CNS) | TGI (SF-295 CNS) | TGI (SF-539 CNS) | TGI (SK-MEL-2 melanoma) | TGI (SK-MEL-28 melanoma) | TGI (SK-OV-3 ovarian) | TGI (SN12C renal) | TGI (SNB-19 CNS) | TGI (SNB-75 CNS) | TGI (SR leukemia) | TGI (SW-620 colon) | TGI (T-47D breast) | TGI (TK-10 renal) | TGI (U251 CNS) | TGI (UACC-257 melanoma) | TGI (UACC-62 melanoma) | TGI (UO-31 renal)
41.6 µM: TGI (BT-549 breast)
inactive: GI50 (786-0 renal) > 100 µM | GI50 (A498 renal) > 100 µM | GI50 (A549 NSCLC) > 100 µM | GI50 (ACHN renal) > 100 µM | GI50 (BT-549 breast) 3.56 µM | GI50 (CAKI-1 renal) 56.4 µM | GI50 (COLO 205 colon) > 100 µM | GI50 (DU-145 prostate) > 100 µM | GI50 (EKVX NSCLC) 2.82 µM | GI50 (HCC-2998 colon) > 100 µM | GI50 (HCT-116 colon) 8.74 µM | GI50 (HCT-15 colon) 74.5 µM | GI50 (HL-60(TB) leukemia) > 100 µM | GI50 (HOP-62 NSCLC) > 100 µM | GI50 (HOP-92 NSCLC) 12.4 µM | GI50 (HS 578T breast) > 100 µM | GI50 (HT29 colon) > 100 µM | GI50 (IGROV1 ovarian) 18.6 µM | GI50 (K-562 leukemia) 8.74 µM | GI50 (KM12 colon) > 100 µM | GI50 (LOX IMVI melanoma) 2.46 µM | GI50 (M14 melanoma) 3.35 µM | GI50 (MALME-3M melanoma) 3.49 µM | GI50 (MCF7 breast) 20.5 µM | GI50 (MDA-MB-231 breast) 30.8 µM | GI50 (MDA-MB-435) 5.19 µM | GI50 (MOLT-4 leukemia) 10.8 µM | GI50 (NCI-H226 lung) 2.75 µM | GI50 (NCI-H23 lung) 2.83 µM | GI50 (NCI-H460 lung) > 100 µM | GI50 (NCI-H522 lung) 2.53 µM | GI50 (NCI/ADR-RES ovarian) 42.7 µM | GI50 (OVCAR-3 ovarian) > 100 µM | GI50 (OVCAR-4 ovarian) 71.5 µM | GI50 (OVCAR-5 ovarian) > 100 µM | GI50 (OVCAR-8 ovarian) 28.6 µM | GI50 (PC-3 prostate) > 100 µM | GI50 (RPMI-8226 leukemia) 38.9 µM | GI50 (RXF 393 renal) 27 µM | GI50 (SF-268 CNS) 29.9 µM | GI50 (SF-295 CNS) > 100 µM | GI50 (SF-539 CNS) 82.5 µM | GI50 (SK-MEL-2 melanoma) 33.8 µM | GI50 (SK-MEL-28 melanoma) > 100 µM | GI50 (SK-MEL-5 melanoma) 6.81 µM | GI50 (SK-OV-3 ovarian) > 100 µM | GI50 (SN12C renal) 3.84 µM | GI50 (SNB-19 CNS) > 100 µM | GI50 (SNB-75 CNS) 19 µM | GI50 (SR leukemia) 4.34 µM | GI50 (SW-620 colon) 5.46 µM | GI50 (T-47D breast) > 100 µM | GI50 (TK-10 renal) > 100 µM | GI50 (U251 CNS) > 100 µM | GI50 (UACC-257 melanoma) > 100 µM | GI50 (UACC-62 melanoma) 39.9 µM | GI50 (UO-31 renal) 67.7 µM
34.8 µM: TGI (NCI-H226 lung)
35.7 µM: TGI (M14 melanoma)
86.6 µM: TGI (RXF 393 renal)
36.8 µM: TGI (NCI-H23 lung)
